ChEMBL document CHEMBL5257141, “PROTAC: Harnessing Targeted Chimeras for Selective BCL-2 Degradation in Cancer Treatment” (ACS Med Chem Lett, 2023)

The compounds below were run against Apoptosis regulator Bcl-2 (Homo sapiens, UniProt P10415) (assay: Inhibition of BCL-2 (unknown origin) using FITC-Ahx-GQVGRQLAIIGDDINR-CONH2 as substrate incubated for 4 hrs by fluorescence polarization competition assay).
Sequence of Apoptosis regulator Bcl-2 (P10415 whole entry): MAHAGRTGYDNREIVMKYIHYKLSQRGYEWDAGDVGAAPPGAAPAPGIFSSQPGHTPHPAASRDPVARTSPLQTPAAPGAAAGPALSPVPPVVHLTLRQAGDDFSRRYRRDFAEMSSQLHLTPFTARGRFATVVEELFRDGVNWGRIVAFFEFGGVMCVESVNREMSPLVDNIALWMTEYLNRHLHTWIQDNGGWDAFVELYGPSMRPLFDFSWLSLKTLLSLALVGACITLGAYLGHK

IC50, < 20 nM:
COc1cc(C(=O)NCCNc2ccc(S(=O)(=O)NC(=O)c3ccc(N4CCN(CC5=C(c6ccc(Cl)cc6)CC(C)(C)CC5)CC4)cc3Oc3cnc4[nH]ccc4c3)cc2[N+](=O)[O-])ccc1NC(=O)[C@@H]1N[C@@H](CC(C)(C)C)[C@](C#N)(c2ccc(Cl)cc2F)[C@H]1c1cccc(Cl)c1F
CC1(C)CCC(CN2CCN(c3ccc(C(=O)NS(=O)(=O)c4ccc(NCCNC(=O)COc5cccc6c5C(=O)N(C5CCC(=O)NC5=O)C6=O)c([N+](=O)[O-])c4)c(Oc4cnc5[nH]ccc5c4)c3)CC2)=C(c2ccc(Cl)cc2)C1 (stereo not given)
CC1(C)CCC(CN2CCN(c3ccc(C(=O)NS(=O)(=O)c4ccc(NCCOCCOCCNC(=O)CCNC(=O)COc5cccc6c5C(=O)N(C5CCC(=O)NC5=O)C6=O)c([N+](=O)[O-])c4)c(Oc4cnc5[nH]ccc5c4)c3)CC2)=C(c2ccc(Cl)cc2)C1 (stereo not given)
CC1(C)CCC(CN2CCN(c3ccc(C(=O)NS(=O)(=O)c4ccc(NCCOCCOCCNC(=O)COc5cccc6c5C(=O)N(C5CCC(=O)NC5=O)C6=O)c([N+](=O)[O-])c4)c(Oc4cnc5[nH]ccc5c4)c3)CC2)=C(c2ccc(Cl)cc2)C1 (stereo not given)
COc1cc(C(=O)NCCOCCOCCNc2ccc(S(=O)(=O)NC(=O)c3ccc(N4CCN(CC5=C(c6ccc(Cl)cc6)CC(C)(C)CC5)CC4)cc3Oc3cnc4[nH]ccc4c3)cc2[N+](=O)[O-])ccc1NC(=O)[C@@H]1N[C@@H](CC(C)(C)C)[C@](C#N)(c2ccc(Cl)cc2F)[C@H]1c1cccc(Cl)c1F
